Results taken from patent publication US9267129B2, “Compositions and methods for conferring herbicide resistance” (BEN-GURION UNIVERSITY OF THE NEGEV RESEARCH AND DEVELOPMENT …, priority 2011, dated 2016).

Tests used:
PiAHAS wild-type [1] = target: T1, PiAHAS wild-type (Parietochloris incisa (Lobosphaera incisa), UniProt I3VJH2); test: PiAHAS in vitro enzyme assay, inhibition by SMM (wild type); type: biochemical; conditions: wild-type AHAS; pyruvate 100 mM; 37° C., pH 7.6
T1 sequence (I3VJH2 1-707 D350G/R415C): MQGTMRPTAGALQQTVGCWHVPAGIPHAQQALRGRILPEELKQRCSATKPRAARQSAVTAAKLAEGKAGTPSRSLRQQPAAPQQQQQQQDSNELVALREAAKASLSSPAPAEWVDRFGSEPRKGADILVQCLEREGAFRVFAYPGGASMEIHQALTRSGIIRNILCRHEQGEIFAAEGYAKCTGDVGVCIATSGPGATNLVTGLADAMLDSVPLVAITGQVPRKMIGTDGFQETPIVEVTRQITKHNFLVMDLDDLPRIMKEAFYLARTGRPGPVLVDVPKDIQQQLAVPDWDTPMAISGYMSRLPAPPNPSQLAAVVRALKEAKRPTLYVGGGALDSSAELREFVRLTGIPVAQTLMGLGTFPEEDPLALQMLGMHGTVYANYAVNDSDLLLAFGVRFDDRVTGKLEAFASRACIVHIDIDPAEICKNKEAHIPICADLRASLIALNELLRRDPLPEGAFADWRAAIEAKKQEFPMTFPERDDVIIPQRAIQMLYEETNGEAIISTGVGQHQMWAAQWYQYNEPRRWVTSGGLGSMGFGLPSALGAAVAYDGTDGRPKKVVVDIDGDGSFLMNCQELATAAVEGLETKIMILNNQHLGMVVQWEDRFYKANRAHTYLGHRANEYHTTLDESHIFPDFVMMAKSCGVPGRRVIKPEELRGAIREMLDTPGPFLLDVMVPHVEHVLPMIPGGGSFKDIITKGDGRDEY
Experimental: (§1) To overexpress the hexahistidine (6xHis)-tagged PiAHAS genes in E. coli strain JM109, plasmids pQE-WT and pQE-MUT were used. These plasmids were constructed by inserting the BamHI-SalI fragment containing the cloned PiAHAS wt and mutant genes into plasmid pQE30 (Qiagen, Hilden, Germany). These plasmids express PiAHAS fused at its N-terminus to the pQE30 6xHis leader. pQE-WT and pQE-MUT were transformed into E. coli for expression. […] The AHAS catalytic activity was determined as previously described (Bar-Ilan A et al. Binding and activation of thiamin diphosphate in acetohydroxyacid synthase. Biochemistry (N.Y.) 2001, 40, 11946-11954). […] Km for pyruvate and Ki for SMM were determined by varying the concentration of the factor in question. Protein concentration was determined by the dye-binding method of Bradford (Bradford MM. A rapid and sensitive method for the quantitation of microgram quantities of protein utilizing the principle of protein-dye binding. Anal. Biochem. 1976, 72, 248-254), with bovine serum albumin as standard. […]
(§2) The Ki was determined to be >30×106, 7 orders of magnitude higher than that of the wild type.

PiAHAS wild-type [2] = target: T2, PiAHAS wild-type (Parietochloris incisa (Lobosphaera incisa), UniProt I3VJH2, D350G/R415C); test: as above; type: biochemical; conditions: wild type; very low concentration of SMM
T2 sequence (I3VJH2 1-707 D350G/R415C): T1 sequence (I3VJH2 1-707 D350G/R415C)
Experimental: as §1, §2

With `COC(=O)c1ccccc1S(=O)(=O)NC(=O)Nc1nc(C)cc(C)n1` [SMM, sulfometuron methyl] the Ki (PiAHAS wild-type [1]) was 150 nM and the “inhibition of enzyme by SMM” value (PiAHAS wild-type [2]) was “strongly inhibited”.
